Numbered stars: 1 amine (or outer) side, 2 acyl side, 3 side chain; on linkers, the order of the positions; unused ones are H or OH. Square brackets hold non-standard residues; d marks the D form. Peptide text beside a SMILES is read from it. ξ: configuration not given here. X2 = O=CC(=O)CCc1ccc(CC(N[*:1])C(=O)[*:2])cc1; Ile(3ξ) = CCC(C)[C@H](N)C(=O)O
Legend:
EGFR (human) [1] = target: EGFR (human) (UniProt P00533); conditions: a431
EGFR (human) [2] = target: EGFR (human) (UniProt P00533)
MAPK14 (human) [3] = target: MAPK14 (human) (UniProt Q16539); test: p38-mediated TNF-alpha Inhibition (LPS-Stimulated PBMCs); conditions: pbmc
MAPK14 (human) [4] = target: MAPK14 (human) (UniProt Q16539); test: Cell-Based Assay; conditions: a375
PIK3CA (human) [5] = target: PIK3CA (human) (UniProt P42336); test: Assessment of PIK3CA Kinase Activity in NZOV9 Cells
EGFR (human) [6] = target: EGFR (human) (UniProt P00533); conditions: hn5
PIK3CA (human) [7] = target: PIK3CA (human) (UniProt P42336); test: Assessment of PIK3CA Kinase Activity in NZB5 Cells
PIK3CA (human) [8] = target: PIK3CA (human) (UniProt P42336); test: Assesment of Cell Proliferation of IGROV-1 Cells Using SRB Assay
PIK3CA (human) [9] = target: PIK3CA (human) (UniProt P42336); test: Inhibition of PIK3CA Kinase Activity
EGFR (human) [10] = target: EGFR (human) (UniProt P00533); conditions: a431; remark: listed apart in the source
EGFR (human) [11] = target: EGFR (human) (UniProt P00533); conditions: kb
EGFR (human) [12] = target: EGFR (human) (UniProt P00533); remark: listed apart in the source
EGFR (human) [13] = target: EGFR (human) (UniProt P00533); remark: listed apart in the source
MAPK14 (human) [14] = target: MAPK14 (human) (UniProt Q16539); test: Cellular Inhibition of MAPK14 Kinase in A549 Cells
EGFR (human) [15] = target: EGFR (human) (UniProt P00533); remark: listed apart in the source
EGFR (human) [16] = target: EGFR (human) (UniProt P00533); conditions: a431; remark: listed apart in the source
EGFR (human) [17] = target: EGFR (human) (UniProt P00533); conditions: a549
EGFR (human) [18] = target: EGFR (human) (UniProt P00533); conditions: a431; remark: listed apart in the source
EGFR [19] = target: EGFR (UniProt P00533)
EGFR (human) [20] = target: EGFR (human) (UniProt P00533); conditions: a431; remark: listed apart in the source
EGFR (human) [21] = target: EGFR (human) (UniProt P00533); remark: listed apart in the source
EGFR [22] = target: EGFR (UniProt P00533); remark: listed apart in the source
[23] = target: PIK3CB;PIK3CG;PIK3CD;PIK3CA (human) (UniProt P48736); test: Assessment of PIK3CA/PIK3CB/PIK3CD/PIK3CG Kinase Activity
EGFR (human) [24] = target: EGFR (human) (UniProt P00533); remark: listed apart in the source
MAPK14 (human) [25] = target: MAPK14 (human) (UniProt Q16539); test: Inhibition of MAPK14 Kinase Activity

Chain of MAPK14 (human) (Q16539 whole entry, looked up): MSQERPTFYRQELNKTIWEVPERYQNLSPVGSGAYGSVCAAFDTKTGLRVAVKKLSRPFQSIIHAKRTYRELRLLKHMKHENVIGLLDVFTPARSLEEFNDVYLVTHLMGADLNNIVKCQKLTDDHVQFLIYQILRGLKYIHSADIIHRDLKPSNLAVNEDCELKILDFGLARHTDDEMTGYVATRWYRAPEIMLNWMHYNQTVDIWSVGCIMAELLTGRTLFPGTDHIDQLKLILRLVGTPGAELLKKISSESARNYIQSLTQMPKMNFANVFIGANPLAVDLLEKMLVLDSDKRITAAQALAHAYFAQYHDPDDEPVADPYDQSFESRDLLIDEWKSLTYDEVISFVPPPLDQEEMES
Chain of PIK3CA (human) (P42336 whole entry, looked up): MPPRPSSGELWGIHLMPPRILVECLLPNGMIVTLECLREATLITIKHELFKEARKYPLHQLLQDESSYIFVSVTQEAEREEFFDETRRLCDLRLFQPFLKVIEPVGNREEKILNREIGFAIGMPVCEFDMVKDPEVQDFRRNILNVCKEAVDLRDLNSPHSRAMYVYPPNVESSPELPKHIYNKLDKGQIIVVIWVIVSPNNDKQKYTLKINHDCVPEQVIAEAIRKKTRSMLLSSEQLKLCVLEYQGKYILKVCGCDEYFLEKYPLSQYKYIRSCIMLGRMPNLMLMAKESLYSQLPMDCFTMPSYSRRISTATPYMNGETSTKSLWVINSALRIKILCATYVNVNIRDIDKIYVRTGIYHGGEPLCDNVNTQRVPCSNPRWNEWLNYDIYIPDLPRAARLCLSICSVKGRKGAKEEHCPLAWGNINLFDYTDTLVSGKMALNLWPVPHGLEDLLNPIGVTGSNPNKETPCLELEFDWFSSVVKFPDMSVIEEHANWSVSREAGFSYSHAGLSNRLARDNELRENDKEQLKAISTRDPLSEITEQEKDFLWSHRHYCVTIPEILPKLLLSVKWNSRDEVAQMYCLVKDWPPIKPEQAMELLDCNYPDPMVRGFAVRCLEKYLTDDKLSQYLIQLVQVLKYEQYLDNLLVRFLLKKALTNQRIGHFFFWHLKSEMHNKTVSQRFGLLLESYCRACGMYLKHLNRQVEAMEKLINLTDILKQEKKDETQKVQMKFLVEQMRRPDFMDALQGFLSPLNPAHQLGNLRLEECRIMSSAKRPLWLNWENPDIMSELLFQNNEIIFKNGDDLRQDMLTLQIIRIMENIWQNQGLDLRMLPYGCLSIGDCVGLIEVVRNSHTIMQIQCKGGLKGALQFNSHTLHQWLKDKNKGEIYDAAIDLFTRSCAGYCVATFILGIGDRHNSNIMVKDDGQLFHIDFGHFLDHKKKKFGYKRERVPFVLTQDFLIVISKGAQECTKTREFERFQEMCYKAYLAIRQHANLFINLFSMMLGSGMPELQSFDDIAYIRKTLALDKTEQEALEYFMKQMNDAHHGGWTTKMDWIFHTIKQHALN
Chain of EGFR (human) (P00533 whole entry, looked up): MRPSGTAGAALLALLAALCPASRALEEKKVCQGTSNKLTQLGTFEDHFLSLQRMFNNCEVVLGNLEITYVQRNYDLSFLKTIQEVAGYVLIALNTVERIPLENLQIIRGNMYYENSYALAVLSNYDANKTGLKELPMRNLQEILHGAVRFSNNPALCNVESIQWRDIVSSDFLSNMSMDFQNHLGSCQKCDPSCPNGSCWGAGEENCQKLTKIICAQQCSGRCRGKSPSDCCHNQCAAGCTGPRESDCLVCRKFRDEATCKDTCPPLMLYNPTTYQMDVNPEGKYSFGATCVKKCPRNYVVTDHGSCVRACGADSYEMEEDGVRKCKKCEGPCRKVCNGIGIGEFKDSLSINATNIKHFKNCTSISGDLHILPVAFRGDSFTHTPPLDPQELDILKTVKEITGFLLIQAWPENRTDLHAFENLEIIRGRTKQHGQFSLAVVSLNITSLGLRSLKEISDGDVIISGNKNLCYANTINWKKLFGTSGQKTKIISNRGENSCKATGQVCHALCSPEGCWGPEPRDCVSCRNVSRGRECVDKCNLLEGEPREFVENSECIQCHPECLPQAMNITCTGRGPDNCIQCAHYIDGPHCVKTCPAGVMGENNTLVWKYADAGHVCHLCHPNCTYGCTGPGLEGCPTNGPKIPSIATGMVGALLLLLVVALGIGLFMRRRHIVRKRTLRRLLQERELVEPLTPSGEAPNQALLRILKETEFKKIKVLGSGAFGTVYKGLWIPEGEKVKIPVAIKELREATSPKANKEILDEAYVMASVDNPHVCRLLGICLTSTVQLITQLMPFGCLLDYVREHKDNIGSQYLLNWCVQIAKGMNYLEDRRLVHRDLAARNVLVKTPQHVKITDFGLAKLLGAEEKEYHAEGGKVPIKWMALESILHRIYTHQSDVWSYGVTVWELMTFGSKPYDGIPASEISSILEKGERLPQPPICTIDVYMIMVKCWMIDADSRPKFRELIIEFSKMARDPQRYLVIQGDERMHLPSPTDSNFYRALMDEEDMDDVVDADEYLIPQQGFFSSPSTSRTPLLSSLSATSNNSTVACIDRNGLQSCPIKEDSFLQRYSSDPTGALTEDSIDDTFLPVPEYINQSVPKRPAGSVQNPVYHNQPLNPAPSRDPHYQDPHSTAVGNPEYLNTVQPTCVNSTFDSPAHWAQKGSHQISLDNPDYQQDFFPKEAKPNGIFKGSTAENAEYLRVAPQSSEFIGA
Chain of EGFR (P00533 whole entry, looked up): as above

Structure (SMILES): Nc1nc(Nc2ccc(Cl)cc2Br)c2cc(Cc3ccc(Cl)cc3Cl)[nH]c2n1
- IC50 (EGFR (human) [1]): 16.2 µM

Structure (SMILES): COc1cc2ncnc(Nc3ccc4occc4c3)c2cc1OCCCCCCC(=O)NO
- IC50 (EGFR (human) [2]): ≤ 0.1 µM

Structure (SMILES): O=C1NCN2N=C(Sc3ccc(F)cc3)C=CC2=C1c1c(Cl)cccc1Cl
- IC50 (MAPK14 (human) [3]): 0.39 µM

Structure (SMILES): CCCS(=O)(=O)Nc1ccc(F)c(C(=O)c2c[nH]c3ncc(Cl)cc23)c1F
- IC50 (MAPK14 (human) [4]): > 10 µM

Structure (SMILES): Cc1ccc([N+](=O)[O-])cc1S(=O)(=O)N(C)N=Cc1cnn2cccc(C)c12
- IC50 (PIK3CA (human) [5]): > 20 µM

Structure (SMILES): Oc1ccc(-c2nc3c(O)cc(O)cc3s2)cc1
- IC50 (EGFR (human) [6]): 300 µM

Structure (SMILES): Cc1ccc([N+](=O)[O-])cc1S(=O)(=O)N(C)N=Cc1cnn2ccc(O)cc12
- IC50 (PIK3CA (human) [5]): > 20 µM
- IC50 (PIK3CA (human) [7]): > 20 µM

Structure (SMILES): CS(=O)(=O)Nc1cccc(-c2cc(N3CCOCC3)nc(OCc3ccccn3)n2)c1
- GI50 (PIK3CA (human) [8]): 13.5 µM
- IC50 (PIK3CA (human) [9]): 6.2 µM

Structure (SMILES): CCOc1cc2ncc(C#N)c(Nc3ccc(OCc4ccccn4)c(Cl)c3)c2cc1NC(=O)/C=C/[C@@H]1C[C@@H](O)CN1C
- IC50 (EGFR (human) [10]): 0.036 µM

Structure (SMILES): CCOc1cc2ncnc(Nc3ccc(F)c(Cl)c3)c2cc1NC(=O)/C=C/[C@H]1CCCN1C
- IC50 (EGFR (human) [10]): 0.008 µM

Structure (SMILES): COc1cc2ncnc(Nc3cccc(Cl)c3F)c2cc1O[C@H]1CCN(C)[C@H](C(N)=O)C1
- IC50 (EGFR (human) [11]): 0.056 µM

Structure (SMILES): Cc1ncnc(Nc2ccc(OCc3cccc(F)c3)c(Cl)c2)c1-c1ccc(CNC2CC2)cc1
- IC50 (EGFR (human) [12]): 0.098 µM

Structure (SMILES): OC[C@@H]1CCCN1Cc1ccc(Nc2nc3ncnc(Nc4ccc(F)c(Cl)c4)c3s2)cc1
- IC50 (EGFR (human) [13]): 0.0109 µM

Structure (SMILES): CNc1nccc(-c2cn(C(C)C)nc2-c2cc(Cl)cc(NS(C)(=O)=O)c2F)n1
- IC50 (MAPK14 (human) [14]): 17 µM

Structure (SMILES): C#Cc1cccc(Nc2ncnc3cc(OC)c(OCCCCCCC(=O)O)cc23)c1
- IC50 (EGFR (human) [15]): ≤ 0.1 µM

Structure (SMILES): C=C=CCCCOc1cc2c(Nc3ccc(F)c(Cl)c3)ncnc2cc1OC
- GI50 (EGFR (human) [16]): 0.268 µM

Structure (SMILES): COc1cc(O)c2c(=O)n(-c3cccc(C(=O)N4CCCCC4)c3)ccc2c1NC(=O)Nc1ccc(C(=O)N2CCN(C)CC2)cc1
- IC50 (EGFR (human) [17]): > 100 µM

Structure (SMILES): C=C(CN1CCOCC1)C(=O)Nc1ccc2ncnc(Nc3cccc(Br)c3)c2c1
- IC50 (EGFR (human) [18]): 0.128 µM

Structure (SMILES): C#Cc1cc(Nc2ncnc3cc(OC)c(OCCCCCCC(=O)O)cc23)ccc1O
- IC50 (EGFR (human) [15]): ≤ 0.1 µM

Structure (SMILES): COc1ccc(OC)c(Cc2cc3c(Nc4cccc(Br)c4)ncnc3[nH]2)c1
- IC50 (EGFR (human) [1]): 4.5 µM

Structure (SMILES): O=[N+]([O-])c1ccc2ncnc(Nc3cccc(Br)c3)c2c1
- IC50 (EGFR [19]): 0.9 µM

Structure (SMILES): CCOc1ccc(-c2cc(C(F)(F)F)c(C#N)c(SCC(=O)NCC(=O)O)n2)cc1
- IC50 (EGFR (human) [20]): > 50 µM

Structure (SMILES): C=CC(=O)N1CCC[C@H](n2cnc3c(N)nc(Nc4ccc(N5CCOCC5)cc4)nc32)C1
- IC50 (EGFR (human) [21]): 0.602 µM

Structure (SMILES): COC(=O)c1ccccc1Sc1ccc2c(-c3c(Cl)cccc3Cl)c(=O)ncn2n1
- IC50 (MAPK14 (human) [3]): 0.37 µM

Structure (SMILES): CC(=NN(C)S(=O)(=O)c1cc([N+](=O)[O-])ccc1C)c1cnn2ccc(Br)cc12
- IC50 (PIK3CA (human) [5]): > 20 µM
- IC50 (PIK3CA (human) [7]): > 20 µM

Structure (SMILES): C#Cc1cccc(Nc2ncnc3cc(OC)c(OCCCCC(=O)O)cc23)c1
- IC50 (EGFR (human) [15]): ≤ 0.1 µM

Structure (SMILES): FC(F)(F)c1cccc(Nc2ncnc3[nH]c(Cc4ccc(Cl)cc4Cl)cc23)c1
- IC50 (EGFR (human) [1]): 198 µM

Structure (SMILES): CCC(C)[C@H](NC(=O)[C@H](CCC(=O)O)NC(=O)[C@H](CCC(=O)O)NC(=O)C(Cc1ccc(CCC(=O)C=O)cc1)NC(C)=O)C(=O)N[C@@H](CCC(=O)O)C(=O)O (stereo partly specified) (Ac-[X2]EE[Ile(3ξ)]E-OH)
- IC50 (EGFR [22]): ≤ 185 µM

Structure (SMILES): Oc1cccc(-c2c(F)cnc3[nH]c4cnc(-c5cccnc5)cc4c23)c1
- IC50 [23]: 0.1 to 1 µM

Structure (SMILES): Cc1ncnc(Nc2ccc(OCc3cccc(F)c3)c(Cl)c2)c1-c1ccc(CNC(C)C)cc1
- IC50 (EGFR (human) [12]): 0.024 µM

Structure (SMILES): CCN(c1ccc(N2CCOCC2)cc1)c1ncnc2nc(Nc3ccc(S(N)(=O)=O)cc3)sc12
- IC50 (EGFR (human) [13]): 10.1 µM

Structure (SMILES): C=CC(=O)N1CCC[C@H](n2cnc3c(N)nc(Nc4ccc(OCCOC)cc4)nc32)C1
- IC50 (EGFR (human) [21]): 0.104 µM

Structure (SMILES): Ic1cccc(Nc2ncnc3ccccc23)c1
- IC50 (EGFR [19]): 0.08 µM

Structure (SMILES): C#CCCCN1CCN(Cc2c(C)ncnc2Nc2ccc(OCc3cccc(F)c3)c(Cl)c2)CC1
- IC50 (EGFR (human) [12]): 0.009 µM

Structure (SMILES): FC(F)(F)c1cccc(Nc2ncnc3ccccc23)c1
- IC50 (EGFR [19]): 0.577 µM

Structure (SMILES): O=C1Nc2ccc(I)cc2/C1=C/c1cc(Br)c(O)c(Br)c1
- IC50 (MAPK14 (human) [4]): > 10 µM

Structure (SMILES): CN1CCC(c2[nH]nc(-c3ccc(Cl)cc3)c2-c2ccncn2)CC1
- IC50 (EGFR (human) [24]): < 1 µM
- IC50 (MAPK14 (human) [25]): 0.048 µM

From the Kinase Knowledgebase extract (Sharma et al. 2016)
